Read-outs that look alike come from different tables or passages of the source. A value given as a limit tells only on which side of the number the result lay.

Assay [1] deals with T1, α-7 nicotinic ACh receptor ion channel expressed in mammalian HEK 293 cells (Rattus norvegicus, UniProt Q05941). Briefly: Ca2+-sensitive, fluorescence-based FLIPR assay for α-7 nicotinic acetylcholine receptor channel function (agonist activity). In kind it is cell-based. The procedure:
I) α7 Nicotinic Acetycholine Receptor Binding. Membranes were prepared for binding using HEK293 cells stably expressing the rat α7 nicotinic acetycholine receptor (rat α7 nAChR). Cells were homogenized at 4° C. in hypotonic lysis buffer consisting of 10 mM Tris (pH 7.4), 5 mM EDTA and protease inhibitors and centrifuged at 32000×g for 20 minutes. The pellet was washed once in membrane wash buffer consisting of 50 mM Tris (pH 7.4), 1 mM EDTA and protease inhibitors and centrifuged at 32000×g for 20 minutes. This pellet was then resuspended in assay buffer consisting 50 mM KH2PO4 (pH 7.4 at 25° C.), 1 mM EDTA, 0.005% Triton-X 100 and 0.1% (v/v) Sigma Protease Inhibitor Cocktail. Aliquots were then frozen in dry ice/ethanol and kept at −80° C. until the day of the assay. II) A Ca^2+-Sensitive, Fluorescence-Based Assay α-7 for Nicotinic Acetylcholine Receptor Channel Function In Mammalian Cells (“FLIPR”). Summary: Lead compounds are evaluated for agonist activity at α-7, α3β4, α4αβ2, and α1β1δ1ε sub-types of nicotinic ACh receptor ion channels expressed in mammalian HEK 293 cells. Agonist potency and efficacy values are determined from kinetic fluorescence Ca^2+ influx measurements made using a 384 well FLIPR (Fluorescence Image Plate Reader). […] The basal fluorescence from the cells is monitored in real time, followed by the acute addition of test compounds. […]
Target sequence in this assay (Q05941 23-502 limits assumed): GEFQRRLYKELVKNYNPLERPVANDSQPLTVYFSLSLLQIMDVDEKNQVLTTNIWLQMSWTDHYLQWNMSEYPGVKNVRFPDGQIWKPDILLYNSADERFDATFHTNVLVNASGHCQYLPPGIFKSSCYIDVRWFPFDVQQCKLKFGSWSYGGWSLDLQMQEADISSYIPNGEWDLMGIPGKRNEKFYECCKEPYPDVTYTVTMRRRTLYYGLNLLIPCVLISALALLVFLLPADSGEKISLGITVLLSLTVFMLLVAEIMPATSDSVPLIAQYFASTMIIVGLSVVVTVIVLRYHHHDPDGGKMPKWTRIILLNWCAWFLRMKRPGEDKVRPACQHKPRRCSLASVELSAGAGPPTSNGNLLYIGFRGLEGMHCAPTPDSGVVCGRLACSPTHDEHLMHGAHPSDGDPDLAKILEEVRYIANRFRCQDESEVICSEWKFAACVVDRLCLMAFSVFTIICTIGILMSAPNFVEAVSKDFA

The target in assay [2] is T1, α-7 nicotinic ACh receptor ion channel expressed in mammalian HEK 293 cells. The assay is described as above. The conditions noted are these: Ca2+ flux, HEK-293 cells, Fluo-4. On the set-up: expressed in transfected cells. In kind it is cell-based. As to the method: I) α7 Nicotinic Acetycholine Receptor Binding. Membranes were prepared for binding using HEK293 cells stably expressing the rat α7 nicotinic acetycholine receptor (rat α7 nAChR). Cells were homogenized at 4° C. in hypotonic lysis buffer consisting of 10 mM Tris (pH 7.4), 5 mM EDTA and protease inhibitors and centrifuged at 32000×g for 20 minutes. The pellet was washed once in membrane wash buffer consisting of 50 mM Tris (pH 7.4), 1 mM EDTA and protease inhibitors and centrifuged at 32000×g for 20 minutes. This pellet was then resuspended in assay buffer consisting 50 mM KH2PO4 (pH 7.4 at 25° C.), 1 mM EDTA, 0.005% Triton-X 100 and 0.1% (v/v) Sigma Protease Inhibitor Cocktail. Aliquots were then frozen in dry ice/ethanol and kept at −80° C. until the day of the assay. II) A Ca^2+-Sensitive, Fluorescence-Based Assay α-7 for Nicotinic Acetylcholine Receptor Channel Function In Mammalian Cells (“FLIPR”). Summary: Lead compounds are evaluated for agonist activity at α-7, α3β4, α4αβ2, and α1β1δ1ε sub-types of nicotinic ACh receptor ion channels expressed in mammalian HEK 293 cells. Agonist potency and efficacy values are determined from kinetic fluorescence Ca^2+ influx measurements made using a 384 well FLIPR (Fluorescence Image Plate Reader). […] In this assay, channel expressing HEK cell lines seeded in 384 well assay plates are loaded with a membrane permeant fluorescent Ca^2+ indicator dye, whose 510 nm green emission signal increases in response to elevation of intracellular Ca^2+ concentration. The basal fluorescence from the cells is monitored in real time, followed by the acute addition of test compounds.
Materials and Methods: Reagents: The acetomethoxy (AM) ester of the Ca^2+ indicator dye Fluo-4 was obtained from InVitrogen, (Carlsbad, Calif.). Acetylcholine and all buffer constituents were purchased from Sigma Chemical Company, St. Louis, Mo. G418 and Minimal Essential Medium were purchased from InVitrogen Life Technologies, Carlsbad, Calif. Fetal bovine serum was purchased from (InVitrogen, Carlsbad, Calif.).
Cell Culture: HEK-293 cells were grown in Minimal Essential Medium containing 10% (v/v) fetal bovine serum at 37° C. in a 5% CO2 incubator. HEK-293 cells stably expressing the ion channels were grown in the same medium with the addition of 500 μg/ml G418.
Ca^2+ flux assays of Ca^2+ channels expressed in HEK-293 cells: HEK-293 cells expressing the ion channels of interest were plated in 384 well, black-walled, clear-bottomed, poly-D-lysine coated plates at a density of ˜20,000 cells/well in 20 μl of Minimal Essential Medium containing 10% (v/v) fetal bovine serum and incubated for 2 days at 29° C. in a 5% CO2 incubator. Prior to assay, cells were loaded with the Fluo-4 AM ester. […] Dye loading was allowed to proceed for 90 minutes at room temperature at which time the dye loading solution was removed and replaced with 40 μl/well of Hanks buffer. Cells loaded with dye were loaded onto a FLIPR384 (Molecular Devices, Sunnyvale, Calif.). Fluo-4 dye was excited using the 488 nm line of an argon laser. Emission was filtered using a 540+/−30 nm bandpass filter. For evaluation of the effects of test compounds using the Ca^2+ flux assay, compounds to be tested were provided in assay ready plates. For nicotinic receptor ion channel expressing cells, the assay was initiated by the addition of 20 μl/well of Hanks buffer containing test compounds. For all assays, data were collected at 1 Hz for 10 seconds (baseline), at which time the compound containing stimulus buffers are added, and further measurements collected at 0.33 Hz for 3 min.
Data Analysis: The statistical robustness of the nicotinic receptor Ca^2+ flux assays is determined from blanks and totals wells. […] The raw fluorescence units data files generated on the FLIPR plate reader are automatically exported and processed by in-house data analysis tools.
Target sequence in this assay (Q05941 23-502): as the sequence (Q05941 23-502 limits assumed) above
In general terms: Calcium assays in cells follow changes in intracellular calcium, usually with a dye or a luminescent sensor.

The mark [3] stands for this setting: FLIPR α7 activity rating (EC50, nM), agonist potency class.
[4] abbreviates: FLIPR α7-HI (EC50, nM), agonist potency.
Setting [5] is: agonist potency class, read-out: FLIPR α7 activity rating (EC50).

Regarding `c1ccc2sc(NC3=NC[C@@]4(CN5CC[C@@H]4C5)O3)nc2c1`, the concentration for a half-maximal effect (EC50) in assay [1] is below 100 nM.
`c1ccc2cc(NC3=NCC4(CN5CCC4C5)O3)ncc2c1` (single isomer, unassigned) [Example 7b] yielded an EC50 in assay [2] (setting [3]) below 100 nM.
Consider `c1cnc2sc(NC3=NCC4(CN5CCC4C5)O3)nc2c1` (single isomer, unassigned) [Example 8a], for which the EC50 was 121 nM in assay [2] (setting [4]) and 100 to 1000 nM in assay [2] (setting [3]).
As to `c1cnc2sc(NC3=NCC4(CN5CCC4C5)O3)nc2c1` (single isomer, unassigned) [Example 8b], the EC50 in assay [2] (setting [3]) is below 100 nM.
As to `c1ccc2cc(NC3=NCC4(CN5CCC4C5)O3)ncc2c1` (single isomer, unassigned) [Example 16a], in assay [2] (setting [3]), the EC50 lay within 1000 to 100000 nM.
The same measure, in the same setting: with `c1ccc2cc(NC3=NCC4(CN5CCC4C5)O3)ncc2c1` (single isomer, unassigned) [Example 16b] the figure was below 100 nM; with `c1cnc2sc(NC3=NCC4(CN5CCC4C5)O3)nc2c1` (single isomer, unassigned) [Example 17a], 1000 to 100000 nM.
For the compound `c1cnc2sc(NC3=NCC4(CN5CCC4C5)O3)nc2c1` (single isomer, unassigned) [Example 17b], the EC50 in assay [2] (setting [4]) was 35 nM; in assay [2] (setting [3]) it was below 100 nM.
The matching figures for `c1cncc(-c2cc(NC3=NC[C@@]4(C[N@@]5CC[C@@H]4C5)O3)ncn2)c1` [Example 11, (3R,4R)—N-(6-(Pyridin-3-yl)pyrimidin-4-yl)-4′H-1-azaspiro[bicyclo[2.2.1]heptane-3,5′-oxazol]-2′-amine]: 34 nM and below 100 nM.
For the compound `COc1cc(NC2=NC[C@@]3(C[N@@]4CC[C@@H]3C4)O2)ncn1` [Example 13, (3R,4R)—N-(6-Methoxypyrimidin-4-yl)-4′H-1-azaspiro[bicyclo[2.2.1]heptane-3,5′-oxazol]-2′-amine], the EC50 in assay [2] (setting [3]) fell in the range of 100 to 1000 nM.
Still for that read-out and setting: with `Clc1cnc(NC2=NC[C@@]3(C[N@@]4CC[C@@H]3C4)O2)cn1` [Example 14, (3R,4R)—N-(5-Chloropyrazin-2-yl)-4′H-1-azaspiro[bicyclo[2.2.1]heptane-3,5′-oxazol]-2′-amine] the figure was 100 to 1000 nM; with `c1ccc(-c2ccnc(NC3=NC[C@@]4(C[N@@]5CC[C@@H]4C5)O3)n2)cc1` [Example 15, (3R,4R)—N-(4-Phenylpyrimidin-2-yl)-4′H-1-azaspiro[bicyclo[2.2.1]heptane-3,5′-oxazol]-2′-amine], below 100 nM.
For the compound `c1cc(-c2cc(NC3=NC[C@@]4(C[N@@]5CC[C@@H]4C5)O3)ncn2)ccn1` [Example 18, (3R,4R)—N-(6-(Pyridin-4-yl)pyrimidin-4-yl)-4′H-1-azaspiro[bicyclo[2.2.1]heptane-3,5′-oxazol]-2′-amine], the half-maximal effective concentration (EC50) in assay [2] (setting [3]) was below 100 nM.
In the case of `c1cn(-c2cc(NC3=NC[C@@]4(C[N@@]5CC[C@@H]4C5)O3)ncn2)cn1` [Example 19, (3R,4R)—N-(6(1H-Imidazol-1-yl)pyrimidin-4-yl)-4′H-1-azaspiro[bicyclo[2.2.1]heptane-3,5′-oxazol]-2′-amine], the figures for the EC50 in assay [2] (setting [4]) and in assay [2] (setting [3]) were 45 nM and below 100 nM, respectively.
The matching figures for `Clc1cn(-c2cc(NC3=NC[C@@]4(C[N@@]5CC[C@@H]4C5)O3)ncn2)cn1` [Example 20, (3R,4R)—N-(6-(4-Chloro-1H-imidazol-1-yl)pyrimidin-4-yl)-4′H-1-azaspiro[bicyclo[2.2.1]heptane-3,5′-oxazol]-2′-amine]: 129 nM and 100 to 1000 nM.
Take `c1nc(NC2=NC[C@@]3(C[N@@]4CC[C@@H]3C4)O2)cc(-n2cncn2)n1` [Example 21, (3R,4R)—N-(6-(1H-1,2,4-Triazol-1-yl)pyrimidin-4-yl)-4′H-1-azaspiro[bicyclo[2.2.1]heptane-3,5′-oxazol]-2′-amine]: the EC50 in assay [2] (setting [3]) is below 100 nM.
Same read-out and setting: with `Cc1cn(-c2cc(NC3=NC[C@@]4(C[N@@]5CC[C@@H]4C5)O3)ncn2)cn1` [Example 22, (3R,4R)—N-(6-(4-Methyl-1H-imidazol-1-yl)pyrimidin-4-yl)-4′H-1-azaspiro[bicyclo[2.2.1]heptane-3,5′-oxazol]-2′-amine] the figure was 100 to 1000 nM.
For the compound `COc1c(NC2=NC[C@@]3(C[N@@]4CC[C@@H]3C4)O2)ncnc1N1CCCC1` [Example 23, (3R,4R)—N-(5-Methoxy-6-(pyrrolidin-1-yl)pyrimidin-4-yl)-4′H-1-azaspiro[bicyclo[2.2.1]heptane-3,5′-oxazol]-2′-amine], in assay [2] (setting [5]), the EC50 was below 100 nM.
As to `c1ccc2nc(NC3=NC[C@@]4(C[N@@]5CC[C@@H]4C5)O3)nnc2c1` [Example 24, (3R,4R)—N-(Benzo[e][1,2,4]triazin-3-yl)-4′H-1-azaspiro[bicyclo[2.2.1]heptane-3,5′-oxazol]-2′-amine], the 50% effective concentration (EC50) in assay [2] (setting [5]) was below 100 nM.
Same read-out and setting: the value for `Clc1ccc2oc(NC3=NC[C@@]4(C[N@@]5CC[C@@H]4C5)O3)nc2c1` [Example 25, (3R,4R)—N-(5-Chlorobenzo[d]oxazol-2-yl)-4′H-1-azaspiro[bicyclo[2.2.1]heptane-3,5′-oxazol]-2′-amine] was below 100 nM.
For `c1nc(NC2=NC[C@@]3(C[N@@]4CC[C@@H]3C4)O2)c2sccc2n1` [Example 27, (3R,4R)—N-(Thieno[3,2-d]pyrimidin-4-yl)-4′H-1-azaspiro[bicyclo[2.2.1]heptane-3,5′-oxazol]-2′-amine], the EC50 in assay [2] (setting [3]) lay within 100 to 1000 nM.
With `Cc1csc2c(NC3=NC[C@@]4(C[N@@]5CC[C@@H]4C5)O3)ncnc12` [Example 28, (3R,4R)—N-(7-Methylthieno[3,2-d]pyrimidin-4-yl)-4′H-1-azaspiro[bicyclo[2.2.1]heptane-3,5′-oxazol]-2′-amine], the values for the EC50 in assay [2] (setting [4]) and in assay [2] (setting [3]) were 222 nM and 100 to 1000 nM, respectively.
On to `Cc1ccc2nc(NC3=NC[C@@]4(C[N@@]5CC[C@@H]4C5)O3)oc2c1` [Example 29, (3R,4R)—N-(6-Methylbenzo[d]oxazol-2-yl)-4′H-1-azaspiro[bicyclo[2.2.1]heptane-3,5′-oxazol]-2′-amine], for which the EC50 in assay [2] (setting [5]) is below 100 nM.

What is called EC50 is the concentration needed to bring the measured effect to its halfway point.

For the origin of these results see patent US8278320B2, “Azabicyclo[2.2.1]heptane compounds as alpha-7 nicotinic acetylcholine receptor ligands” (Bristol-Myers Squibb Company, priority 2009, dated 2012).
